We go through 1 molecule from ChEMBL document CHEMBL1136459, “New antibacterial tetrahydro-4(2H)-thiopyran and thiomorpholine S-oxide and S,S-dioxide phenyloxazolidinones” (Bioorg Med Chem Lett, 2003).

Converted amounts (≈) assume the structure as drawn. Some results are limits rather than exact numbers.

One assay concerns Streptococcus pneumoniae. The experiment in a line: In vitro antibacterial activity against Streptococcus pneumoniae strains ATCC 6305 and 31573 (SPN); range is 1-2.
Assay [1] relates to Staphylococcus epidermidis. Nature of the assay: In vitro antibacterial activity against Staphylococcus epidermidis strains UC12084, 30031, and CDC-CNS90 (SE); range is 0.13-2. Type of assay: functional.
In assay [2] the test system is Staphylococcus aureus. The experiment in a line: In vitro antibacterial activity against linezolid-resistant Staphylococcus aureus ATCC 29213 (LRSA). Type of assay: functional.
Another assay concerns Enterococcus faecium. Nature of the assay: In vitro antibacterial activity against vancomycin-resistant Enterococcus faecium UC12712 (VRE).
Assay [3] relates to Staphylococcus aureus. The experiment in a line: In vitro antibacterial activity against Staphylococcus aureus strains UC12673, UC9213, ATCC 29213, and UC9271 (SA). Type of assay: functional.
The next assay deals with Moraxella catarrhalis. The experiment in a line: In vitro antibacterial activity against Moraxella catarrhalis strains 30607 and 30603 (MC); range is 8-16. Type of assay: functional.
In a further assay the test system is Haemophilus influenzae. Nature of the assay: In vitro antibacterial activity against Haemophilia influenzae strains 30063 and ATCC 31517 (HI); range is 4-16. Type of assay: functional.

In the case of `NC(=O)NC[C@H]1CN(c2ccc(C3CCS(=O)(=O)CC3)c(F)c2)C(=O)O1`, the MIC with Streptococcus pneumoniae is 1 µg/mL (≈ 2.59 µM); in assay [1], 0.13 µg/mL (≈ 0.337 µM); in the assay with Staphylococcus aureus [2] it was > 64 µg/mL; against Enterococcus faecium it was 4 µg/mL (≈ 10.4 µM); against Staphylococcus aureus [3] it was 16 µg/mL (≈ 41.5 µM); in the assay with Moraxella catarrhalis, > 8 µg/mL. Moreover, in the assay with Haemophilus influenzae, the MIC is > 4 µg/mL.
